Experimental data: publication PMC3583342 (Clinical pharmacology and therapeutics, 2008)
Several values for one entry are separate records, joined by “and”; a condition that tells them apart may be missing. Equal entries are not always repeated. Where two headings read alike, the source gives them in different places.

Columns and labels:
Oral = conditions: human, in vivo, 11.2 mg; for AUC(0-t): AUC0-96, oral d5-methadone HCl 11.2 mg; for AUC(0-t) / AUC(0-inf) / Cmax: mean ± SD, n=12; for AUC(0-inf): AUC0-∞; for AUC(0-inf) / Cmax / Tmax: oral d5-methadone HCl 11.2 mg; for Tmax: median (range)
Intravenous = conditions: human, in vivo, 6 mg, mean ± SD, n=12; for AUC(0-t): AUC0-96, IV methadone HCl 6.0 mg; for AUC(0-inf): AUC0-∞
[1] = test system: dark-adapted pupil diameter (miosis); experiment: Methadone pharmacodynamics: dark-adapted pupil diameter change; assay type: in vivo, human; conditions: for Maximum miosis / AUEC0-∞: mean ± SD, n=11; for AUEC0-∞: miosis
[2] = human, in vivo, po
[3] = cited from earlier work
P-gp = conditions: oral fexofenadine P-gp probe, cited from earlier work
[4] = 6.0 mg IV plus 11.2 mg oral methadone HCl
[5] = 6.0 mg IV plus 11.2 mg oral methadone HCl, acute ritonavir
[6] = 6.0 mg IV plus 11.2 mg oral methadone HCl, control
[7] = 6.0 mg IV plus 11.2 mg oral methadone HCl, steady-state ritonavir

SMILES: CCC(=O)C(C[C@H](C)N(C)C)(c1ccccc1)c1ccccc1 [S-methadone]
- AUC(0-t) (Oral; acute ritonavir): 336 ± 170 ng·h/mL
- AUC(0-t) (Oral; control): 580 ± 253 ng·h/mL
- AUC(0-t) (Oral; steady-state ritonavir): 308 ± 161 ng·h/mL
- AUC(0-inf) (Oral; acute ritonavir): 388 ± 233 ng·h/mL
- AUC(0-inf) (Oral; control): 672 ± 335 ng·h/mL
- AUC(0-inf) (Oral; steady-state ritonavir): 340 ± 205 ng·h/mL
- Cmax (Oral; acute ritonavir): 13 ± 6 ng/mL
- Cmax (Oral; control): 21 ± 8 ng/mL
- Tmax (Oral; acute ritonavir): 4 h
- Tmax (Oral; control): 2 h
- Tmax (Oral; steady-state ritonavir): 4 h
- AUC(0-t) (Intravenous; acute ritonavir): 215 ± 93 ng·h/mL
- AUC(0-t) (Intravenous; control): 379 ± 164 ng·h/mL
- AUC(0-t) (Intravenous; steady-state ritonavir): 187 ± 107 ng·h/mL
- AUC(0-inf) (Intravenous; IV methadone HCl 6.0 mg, acute ritonavir): 241 ± 120 ng·h/mL
- AUC(0-inf) (Intravenous; IV methadone HCl 6.0 mg, steady-state ritonavir): 211 ± 129 ng·h/mL
- Cmax (Intravenous; Cmax, IV methadone HCl 6.0 mg, steady-state ritonavir): 57 ± 29 ng/mL

SMILES: CCC(=O)C(CC(C)N(C)C)(c1ccccc1)c1ccccc1 (stereo not shown) [methadone]
- time at which miosis was first detectable (first time point) [1, 4]: 2 min
- time of peak miosis effects [1, 4]: 5 to 10 min
- Maximum miosis [1, 5]: 5.1 ± 1.0 mm
- Maximum miosis [1, 6]: 4.3 ± 1.2 mm
- Maximum miosis [1, 7]: 4.2 ± 0.6 mm
- Emax ([1]; in vivo): 3.0 ± 0.2 mm and 4.2 ± 0.2 ^b mm and 3.3 ± 0.1 ^c mm
- AUEC0-∞ [1, 5]: 135 ± 61 mm•hr
- AUEC0-∞ [1, 6]: 117 ± 61 mm•hr
- AUEC0-∞ [1, 7]: 91 ± 46 mm•hr
- time of second plasma concentration peak [2]: 3 to 4 h
- effect on plasma racemic methadone Cmax and AUC0-24 ([3]; 100mg ritonavir alone for 7d): no effect
- decreases in methadone plasma concentrations after ritonavir initiation ([3]; patients on stable methadone doses, no withdrawal symptoms): 30-50%

SMILES: CC(C)c1nc(CN(C)C(=O)N[C@H](C(=O)N[C@@H](Cc2ccccc2)C[C@H](O)[C@H](Cc2ccccc2)NC(=O)OCc2cncs2)C(C)C)cs1 [ritonavir]
- increase in fexofenadine plasma AUC (P-gp; acute ritonavir): 2.8 fold
- increase in fexofenadine plasma AUC (P-gp; steady-state ritonavir): 1.4 fold
